The values below come from BindingDB's records for patent US9675571 (Bristol-Myers Squibb, 2017).

By EC50 is commonly meant the concentration giving half of the maximal effect. The low end stands for an effect from little substance, the high end for a need for much substance.

For the assay, the target named is Indoleamine 2,3-dioxygenase 1 (Homo sapiens, UniProt P14902). As to the kind of experiment: IDO Kynurenine Assay. The settings on record: 25 °C. The method, then:
Human IDO1/HEK293 cells were seeded at 10,000 cells per 50 uL per well with RPMI/phenol red free media contains 10% FBS in a 384-well black wall clear bottom tissue culture plate (Matrix Technologies LLC) 125 nL of certain concentration of compound was then added to each well using ECHO liquid handling systems. The cells were incubated for 20 hours in 37° C. incubator with 5% CO2. The compound treatments were stopped by adding Trichloroacetic Acid (Sigma-Aldrich) to a final concentration at 0.2%. The cell plate was further incubated at 50° C. for 30 minute. The equal volume supernatant (20 uL) and 0.2% (w/v) Ehrlich reagent (4-dimethylaminobenzaldehyde, Sigma-Aldrich) in glacial acetic acid were mixed in a new clear bottom 384-well plate. This plate was then incubated at room temperature for 30 minute. The absorbance at 490 nm was measured on Envision plate reader.

Indoleamine 2,3-dioxygenase 1, sequence (P14902 whole entry): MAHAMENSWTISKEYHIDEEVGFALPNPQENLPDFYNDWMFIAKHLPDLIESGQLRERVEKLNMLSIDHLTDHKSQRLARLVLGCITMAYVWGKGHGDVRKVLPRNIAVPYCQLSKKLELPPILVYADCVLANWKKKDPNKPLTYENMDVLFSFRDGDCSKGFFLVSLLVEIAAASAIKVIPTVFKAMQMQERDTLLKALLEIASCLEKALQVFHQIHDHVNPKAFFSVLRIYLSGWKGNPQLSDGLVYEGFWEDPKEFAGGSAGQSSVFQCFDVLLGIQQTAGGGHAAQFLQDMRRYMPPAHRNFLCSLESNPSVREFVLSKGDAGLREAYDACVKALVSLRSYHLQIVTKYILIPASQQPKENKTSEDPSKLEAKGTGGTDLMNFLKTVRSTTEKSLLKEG

Consider `Cc1cc(NC(=O)Nc2cc([C@H]3C[C@H]3C(=O)O)ccc2N(CC(C)C)C2CCCCC2)on1` [US9675571, 129], for which the half-maximal effective concentration (EC50) worked out at 0.5 nM. This counts as sub-nanomolar.
